Results as given in patent publication EP4592286A1, “MACROCYCLIC NITROGEN-CONTAINING CROWN ETHER COMPOUND AND USE THEREOF AS PROTEIN KINASE INHIBITOR” (Artivila Biopharma, priority 2022, dated 2024).

Assays:
wild-type LRRK2 = molecular target: T1, wild-type LRRK2 (Homo sapiens, UniProt Q5S007); assay: detection of phosphorylated S935 in HEK293T overexpressing wild-type LRRK2; format: cell-based; details: pS935, HEK293T overexpressing wild-type LRRK2, 1.5 hours
T1 construct: pCMV-flag-WT LRRK2 (full-length); expressed in transfected cells; host or cells: HEK293T
Protocol: (§1) Detection of phosphorylated S935 in HEK293T Overexpressing full-length LRRK2 (G2019S) or wild-type LRRK2
(§2) HEK293T cells was inoculated into a 6-well plate and cultured overnight. The next day, they were transiently transfected with plasmid pcDNA5-FRT/TO-FLAG LRRK2 (G2019S, full-length) or pCMV-flag-WT LRRK2 (full-length) by using Superfect transfection reagent and cultured at 37°C and 5% CO2 for 20-24 hours. The next day, cells were collected, resuspended at a density of 0.48×10^6 cells/ml, and inoculated into a 384-well plate at 50 microliters/well. Compound or DMSO solutions (volume ratio of 0.5%) were added by Tecan, and cultured at 37°C and 5% CO2 for 1.5 hours. After 1.5 hours, the supernatant was discarded, 50 microliters of 8% PFA were added in each well to fix the cells, and the cells were incubated at room temperature for 1 hour. The plate was washed with EL406 plate washer for three times, with 115 microliters of PBST per well, and the culture plate was patted to dryness. The cells were blocked with 50 microliters/well of Licor Odyssey blocking solution (0.1% Tween 20) at room temperature for 1.5 hours. The blocking solution was discarded and the culture plate was patted to dryness. 20 microliters of primary antibody (1:1000(pS935), diluted with Licor Odyssey buffer (0.1% Tween20)) was added into each well, and incubated at 4 °C overnight. The next day, the first antibody was discarded and washing was performed with PBST for five times. 20 microliters of secondary antibody (diluted with Licor Odyssey buffer (0.1% Tween20) at 1:500 and stained with DNA at 1:2000) were added into each well, and incubated at room temperature for 1 hour. The second antibody was discarded, and washing was performed for three times with PBST. The fluorescence intensity was measured by LICOR Odyssey imager Scanner, and the data was analyzed.

LRRK2 (G2019S) = molecular target: T2, LRRK2 (G2019S) (Homo sapiens, UniProt Q5S007, G2019S); assay: detection of phosphorylated S935 in HEK293T overexpressing full-length LRRK2 (G2019S); format: cell-based; details: pS935, HEK293T overexpressing LRRK2 (G2019S), 1.5 hours
T2 construct: pcDNA5-FRT/TO-FLAG LRRK2 (G2019S, full-length); expressed in transfected cells; host or cells: HEK293T
Protocol: as §1, §2

TYK2 = TYK2 (Homo sapiens, UniProt P29597); assay: experiment of inhibiting kinase activity, TYK2; format: biochemical; details: at 10 nM; read-out: inhibition rate TYK2
Protocol: (§3) The inhibition rates of tested compounds on JAK1, JAK2, JAK3, TYK2, CDK7, CDK9, EGFR (T790M) and LRRK2 kinases were measured. The test concentrations of the compounds were 10 nM and 100 nM, and the detection was performed by replicate wells. Alternatively, compounds were 3-fold serial diluted from 10 µM for 10 concentrations in replicate wells.

JAK2 = JAK2 (Homo sapiens, UniProt O60674); assay: experiment of inhibiting kinase activity (Caliper mobility shift assay), JAK2; format: biochemical; details: at 10 nM; read-out: inhibition rate JAK2
In short: (§4)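 Read-out was Caliper mobility shift of substrate conversion, normalized to no-inhibitor and buffer-only wells, with IC50 from a variable-slope log(inhibitor) curve. Enzyme was exposed to compound (10-point 3-fold series from 10 µM, or single 10/100 nM) 10 min at room temperature before ATP/substrate addition.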

LRRK2 = LRRK2 (Homo sapiens, UniProt Q5S007); assay: experiment of inhibiting kinase activity, LRRK2; format: biochemical; details: for inhibition at 0.01 µM: at 10 nM, read-out: inhibition rate LRRK2; for IC50: kinase activity assay, Table 3
Protocol: as §3

JAK3 [1] = molecular target: T3, JAK3 (Homo sapiens, UniProt P52333); assay: experiment of inhibiting kinase activity (Caliper mobility shift assay), JAK3; format: biochemical; details: at 10 nM; read-out: inhibition rate JAK3
T3 sequence (P52333 1-1124): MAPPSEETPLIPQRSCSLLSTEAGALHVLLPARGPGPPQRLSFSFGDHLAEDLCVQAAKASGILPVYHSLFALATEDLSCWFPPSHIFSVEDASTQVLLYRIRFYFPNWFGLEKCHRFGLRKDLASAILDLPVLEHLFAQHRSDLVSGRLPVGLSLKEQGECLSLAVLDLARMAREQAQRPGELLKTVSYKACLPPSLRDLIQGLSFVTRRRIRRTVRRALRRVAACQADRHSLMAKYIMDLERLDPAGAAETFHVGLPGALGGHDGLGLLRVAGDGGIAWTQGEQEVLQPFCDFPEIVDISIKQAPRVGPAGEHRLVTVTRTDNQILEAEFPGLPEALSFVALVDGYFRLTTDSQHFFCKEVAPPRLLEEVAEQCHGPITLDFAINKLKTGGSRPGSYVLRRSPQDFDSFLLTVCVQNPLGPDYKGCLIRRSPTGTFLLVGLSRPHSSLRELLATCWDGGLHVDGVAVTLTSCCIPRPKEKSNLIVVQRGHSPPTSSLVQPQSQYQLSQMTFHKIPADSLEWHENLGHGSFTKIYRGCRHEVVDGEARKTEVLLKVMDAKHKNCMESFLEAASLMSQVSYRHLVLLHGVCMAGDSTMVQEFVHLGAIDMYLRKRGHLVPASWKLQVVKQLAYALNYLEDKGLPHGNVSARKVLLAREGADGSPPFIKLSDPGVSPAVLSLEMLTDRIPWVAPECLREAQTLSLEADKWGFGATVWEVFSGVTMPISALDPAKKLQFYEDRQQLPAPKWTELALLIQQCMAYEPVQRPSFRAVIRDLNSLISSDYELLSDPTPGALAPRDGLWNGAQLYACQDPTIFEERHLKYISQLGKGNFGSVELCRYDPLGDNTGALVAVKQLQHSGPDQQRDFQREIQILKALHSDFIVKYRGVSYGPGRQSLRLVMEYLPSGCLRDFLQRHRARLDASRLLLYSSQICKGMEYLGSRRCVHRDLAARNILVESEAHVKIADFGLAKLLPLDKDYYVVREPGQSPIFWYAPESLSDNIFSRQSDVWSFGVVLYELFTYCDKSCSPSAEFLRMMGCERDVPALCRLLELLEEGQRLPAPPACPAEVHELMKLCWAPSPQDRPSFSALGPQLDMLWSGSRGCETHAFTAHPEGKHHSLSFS
In short: as §4

JAK3 [2] = molecular target: T4, JAK3 (Mus musculus, UniProt Q62137); assay: JAKs cell activity test: JAK3_pSTAT5 in IL-2-induced CTLL-2 cells; format: cell-based; details: pSTAT5, IL-2-induced CTLL-2 cells
T4 construct: endogenous in cells; host or cells: CTLL-2
T4 sequence (Q62137 1-1100): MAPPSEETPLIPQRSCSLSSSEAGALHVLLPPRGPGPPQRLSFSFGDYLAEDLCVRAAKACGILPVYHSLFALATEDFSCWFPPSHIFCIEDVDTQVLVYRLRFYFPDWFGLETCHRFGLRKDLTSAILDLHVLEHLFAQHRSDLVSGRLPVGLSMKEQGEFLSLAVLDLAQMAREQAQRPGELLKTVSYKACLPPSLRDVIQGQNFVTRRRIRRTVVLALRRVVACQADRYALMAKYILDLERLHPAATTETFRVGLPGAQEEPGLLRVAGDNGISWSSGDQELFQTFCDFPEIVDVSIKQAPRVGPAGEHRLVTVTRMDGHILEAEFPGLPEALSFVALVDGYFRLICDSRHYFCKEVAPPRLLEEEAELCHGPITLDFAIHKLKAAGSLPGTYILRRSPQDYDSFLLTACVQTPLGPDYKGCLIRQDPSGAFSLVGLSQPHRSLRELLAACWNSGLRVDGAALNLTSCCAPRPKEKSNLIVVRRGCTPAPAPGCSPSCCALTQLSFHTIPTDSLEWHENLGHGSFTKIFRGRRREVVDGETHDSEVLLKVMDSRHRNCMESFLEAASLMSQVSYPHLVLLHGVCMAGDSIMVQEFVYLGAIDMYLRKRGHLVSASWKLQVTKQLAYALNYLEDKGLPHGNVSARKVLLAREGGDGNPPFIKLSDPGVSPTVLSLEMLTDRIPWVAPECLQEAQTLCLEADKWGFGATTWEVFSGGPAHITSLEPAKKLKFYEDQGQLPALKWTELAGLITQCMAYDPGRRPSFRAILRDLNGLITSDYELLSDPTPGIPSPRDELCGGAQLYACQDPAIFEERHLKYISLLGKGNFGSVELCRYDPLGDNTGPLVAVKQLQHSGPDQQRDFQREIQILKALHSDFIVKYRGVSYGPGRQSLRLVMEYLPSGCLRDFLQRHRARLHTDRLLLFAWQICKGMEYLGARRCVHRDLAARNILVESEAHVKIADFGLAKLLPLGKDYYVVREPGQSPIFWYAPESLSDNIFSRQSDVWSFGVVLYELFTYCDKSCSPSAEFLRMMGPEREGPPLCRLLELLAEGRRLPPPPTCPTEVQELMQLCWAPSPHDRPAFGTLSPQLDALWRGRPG
Protocol: THP1 cells were collected by centrifugation, resuspended with 1×HBSS, counted and diluted to a certain cell density. They were inoculated in a 384-well plate and cultured in a saturated humidity incubator with 37 °C and 5% CO2. The compound (DMSO final volume of 0.3%) was added to THP1 cells (10 doses in duplicates) and cultured in a saturated humidity incubator with 37 °C and 5% CO2. hIL-4 was added to stimulate cells and cultured in a saturated humidity incubator with 37 °C and 5% CO2. The lysis solution was added and incubated at room temperature. According to the instructions of AlphaLISA SureFire Ultra p-STAT6 detection kit, the lysis solution was transferred to pSTAT6 detection system, and the ALPHA signal was read by PE Envision microplate reader. The inhibition rate Inh%=((DMSO-sample)/(DMSO-background))×100 was calculated. IC50 was obtained by fitting with GraphPad Prism non-linear regression equation, and y=Bottom+(Top-Bottom)/(1+10^((LogIC50-x)×hillslope)), where x was the concentration of the compound and y was the inhibition rate.
JAK2_pSTAT5 was tesed in IL-3-induced BAF3 cells according to the above steps, and JAK3_pSTAT5 was tested in IL-2-induced CTLL-2 cells (without serum stimulation) according to the above steps.

Sequence of LRRK2 (Q5S007 whole entry): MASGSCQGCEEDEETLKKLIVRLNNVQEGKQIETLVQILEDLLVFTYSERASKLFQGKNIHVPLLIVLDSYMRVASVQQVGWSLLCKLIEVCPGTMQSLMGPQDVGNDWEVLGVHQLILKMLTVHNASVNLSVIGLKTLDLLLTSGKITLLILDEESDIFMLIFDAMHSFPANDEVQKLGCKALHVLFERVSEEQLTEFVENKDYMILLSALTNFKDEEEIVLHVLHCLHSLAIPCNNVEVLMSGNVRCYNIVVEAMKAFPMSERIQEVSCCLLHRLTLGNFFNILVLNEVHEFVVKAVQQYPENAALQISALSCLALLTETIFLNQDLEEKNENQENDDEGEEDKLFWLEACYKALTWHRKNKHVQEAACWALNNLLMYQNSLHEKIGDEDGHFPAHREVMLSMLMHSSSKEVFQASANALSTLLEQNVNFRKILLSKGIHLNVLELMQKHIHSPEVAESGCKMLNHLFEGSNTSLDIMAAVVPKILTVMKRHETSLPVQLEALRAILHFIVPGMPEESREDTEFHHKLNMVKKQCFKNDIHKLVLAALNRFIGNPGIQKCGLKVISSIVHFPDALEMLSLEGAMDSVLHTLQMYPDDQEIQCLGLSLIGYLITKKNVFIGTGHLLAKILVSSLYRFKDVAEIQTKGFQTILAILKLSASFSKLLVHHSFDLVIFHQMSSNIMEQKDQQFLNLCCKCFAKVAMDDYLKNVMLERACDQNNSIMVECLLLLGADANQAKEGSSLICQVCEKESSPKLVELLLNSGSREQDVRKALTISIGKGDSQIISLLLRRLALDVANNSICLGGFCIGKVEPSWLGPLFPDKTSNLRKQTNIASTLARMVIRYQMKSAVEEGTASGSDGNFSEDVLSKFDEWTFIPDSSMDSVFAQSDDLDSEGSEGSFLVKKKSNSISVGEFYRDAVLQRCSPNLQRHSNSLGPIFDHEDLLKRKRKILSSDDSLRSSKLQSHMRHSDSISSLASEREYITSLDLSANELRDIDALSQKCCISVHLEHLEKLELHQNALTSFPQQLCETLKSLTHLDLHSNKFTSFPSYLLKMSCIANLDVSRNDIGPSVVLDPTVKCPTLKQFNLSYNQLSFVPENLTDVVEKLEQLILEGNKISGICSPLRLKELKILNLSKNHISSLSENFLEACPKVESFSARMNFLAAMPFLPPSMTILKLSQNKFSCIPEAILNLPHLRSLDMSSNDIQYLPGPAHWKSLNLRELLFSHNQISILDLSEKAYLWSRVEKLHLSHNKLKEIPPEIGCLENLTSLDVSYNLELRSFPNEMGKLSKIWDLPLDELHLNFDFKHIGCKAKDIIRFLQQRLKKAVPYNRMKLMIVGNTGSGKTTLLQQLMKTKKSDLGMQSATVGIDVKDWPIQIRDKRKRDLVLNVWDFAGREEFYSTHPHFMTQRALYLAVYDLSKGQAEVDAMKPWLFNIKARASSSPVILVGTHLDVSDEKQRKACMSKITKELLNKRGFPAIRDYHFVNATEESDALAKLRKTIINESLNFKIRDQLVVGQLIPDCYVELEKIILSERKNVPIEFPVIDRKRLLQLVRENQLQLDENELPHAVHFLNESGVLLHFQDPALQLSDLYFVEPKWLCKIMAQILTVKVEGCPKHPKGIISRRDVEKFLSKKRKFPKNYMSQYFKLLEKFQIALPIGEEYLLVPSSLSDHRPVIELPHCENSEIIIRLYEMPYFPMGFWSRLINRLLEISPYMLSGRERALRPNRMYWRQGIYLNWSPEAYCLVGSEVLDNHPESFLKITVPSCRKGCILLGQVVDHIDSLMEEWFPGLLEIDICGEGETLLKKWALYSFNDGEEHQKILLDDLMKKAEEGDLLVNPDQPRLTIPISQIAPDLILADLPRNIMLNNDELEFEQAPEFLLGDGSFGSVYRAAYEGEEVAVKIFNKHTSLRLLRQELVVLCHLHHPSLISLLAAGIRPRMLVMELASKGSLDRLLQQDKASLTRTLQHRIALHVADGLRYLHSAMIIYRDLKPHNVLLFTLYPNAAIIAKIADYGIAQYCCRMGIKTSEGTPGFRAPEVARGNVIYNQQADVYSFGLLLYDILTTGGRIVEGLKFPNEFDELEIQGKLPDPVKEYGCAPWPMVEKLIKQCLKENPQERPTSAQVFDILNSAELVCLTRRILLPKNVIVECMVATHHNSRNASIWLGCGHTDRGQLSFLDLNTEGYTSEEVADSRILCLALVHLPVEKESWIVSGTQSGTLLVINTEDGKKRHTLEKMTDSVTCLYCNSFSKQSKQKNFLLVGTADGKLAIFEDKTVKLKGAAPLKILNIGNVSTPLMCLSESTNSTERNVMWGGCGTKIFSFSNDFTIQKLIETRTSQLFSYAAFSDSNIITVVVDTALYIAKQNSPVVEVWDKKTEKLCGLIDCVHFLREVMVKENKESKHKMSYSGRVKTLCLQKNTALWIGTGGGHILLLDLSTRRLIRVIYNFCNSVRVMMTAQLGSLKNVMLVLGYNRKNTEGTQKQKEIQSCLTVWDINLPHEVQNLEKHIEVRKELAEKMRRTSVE
T1 sequence (Q5S007 whole entry): as above
Sequence of JAK2 (O60674 whole entry): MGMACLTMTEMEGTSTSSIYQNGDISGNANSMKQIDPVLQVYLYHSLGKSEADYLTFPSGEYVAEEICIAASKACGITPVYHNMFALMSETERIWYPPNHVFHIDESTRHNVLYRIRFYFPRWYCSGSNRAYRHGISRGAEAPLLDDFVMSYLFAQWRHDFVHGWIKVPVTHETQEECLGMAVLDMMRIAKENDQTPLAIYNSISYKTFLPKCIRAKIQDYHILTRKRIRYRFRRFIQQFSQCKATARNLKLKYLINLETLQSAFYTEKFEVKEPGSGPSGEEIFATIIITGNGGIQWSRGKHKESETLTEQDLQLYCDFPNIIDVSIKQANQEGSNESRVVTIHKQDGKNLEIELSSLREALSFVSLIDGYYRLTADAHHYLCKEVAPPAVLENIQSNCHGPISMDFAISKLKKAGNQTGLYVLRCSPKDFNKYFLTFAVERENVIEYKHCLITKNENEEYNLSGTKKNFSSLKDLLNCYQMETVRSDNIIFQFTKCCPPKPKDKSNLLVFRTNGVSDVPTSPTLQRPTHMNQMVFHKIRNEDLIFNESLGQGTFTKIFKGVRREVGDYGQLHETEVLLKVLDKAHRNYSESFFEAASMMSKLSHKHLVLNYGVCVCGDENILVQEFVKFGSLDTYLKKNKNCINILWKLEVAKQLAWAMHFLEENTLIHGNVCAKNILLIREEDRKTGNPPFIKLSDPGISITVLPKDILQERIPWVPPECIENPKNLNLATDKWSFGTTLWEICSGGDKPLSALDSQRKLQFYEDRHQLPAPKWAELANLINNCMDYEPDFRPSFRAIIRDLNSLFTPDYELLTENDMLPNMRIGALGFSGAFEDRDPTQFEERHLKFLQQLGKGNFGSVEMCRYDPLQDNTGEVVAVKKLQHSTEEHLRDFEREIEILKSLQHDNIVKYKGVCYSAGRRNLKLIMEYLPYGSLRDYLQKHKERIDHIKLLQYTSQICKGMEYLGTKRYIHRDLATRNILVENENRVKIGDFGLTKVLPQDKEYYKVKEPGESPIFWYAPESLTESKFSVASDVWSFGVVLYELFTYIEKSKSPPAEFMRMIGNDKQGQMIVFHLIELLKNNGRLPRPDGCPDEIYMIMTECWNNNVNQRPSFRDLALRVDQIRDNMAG
T2 sequence (Q5S007 whole entry G2019S): as the sequence (Q5S007 whole entry) above, with G2019S counted along it
Sequence of TYK2 (P29597 whole entry): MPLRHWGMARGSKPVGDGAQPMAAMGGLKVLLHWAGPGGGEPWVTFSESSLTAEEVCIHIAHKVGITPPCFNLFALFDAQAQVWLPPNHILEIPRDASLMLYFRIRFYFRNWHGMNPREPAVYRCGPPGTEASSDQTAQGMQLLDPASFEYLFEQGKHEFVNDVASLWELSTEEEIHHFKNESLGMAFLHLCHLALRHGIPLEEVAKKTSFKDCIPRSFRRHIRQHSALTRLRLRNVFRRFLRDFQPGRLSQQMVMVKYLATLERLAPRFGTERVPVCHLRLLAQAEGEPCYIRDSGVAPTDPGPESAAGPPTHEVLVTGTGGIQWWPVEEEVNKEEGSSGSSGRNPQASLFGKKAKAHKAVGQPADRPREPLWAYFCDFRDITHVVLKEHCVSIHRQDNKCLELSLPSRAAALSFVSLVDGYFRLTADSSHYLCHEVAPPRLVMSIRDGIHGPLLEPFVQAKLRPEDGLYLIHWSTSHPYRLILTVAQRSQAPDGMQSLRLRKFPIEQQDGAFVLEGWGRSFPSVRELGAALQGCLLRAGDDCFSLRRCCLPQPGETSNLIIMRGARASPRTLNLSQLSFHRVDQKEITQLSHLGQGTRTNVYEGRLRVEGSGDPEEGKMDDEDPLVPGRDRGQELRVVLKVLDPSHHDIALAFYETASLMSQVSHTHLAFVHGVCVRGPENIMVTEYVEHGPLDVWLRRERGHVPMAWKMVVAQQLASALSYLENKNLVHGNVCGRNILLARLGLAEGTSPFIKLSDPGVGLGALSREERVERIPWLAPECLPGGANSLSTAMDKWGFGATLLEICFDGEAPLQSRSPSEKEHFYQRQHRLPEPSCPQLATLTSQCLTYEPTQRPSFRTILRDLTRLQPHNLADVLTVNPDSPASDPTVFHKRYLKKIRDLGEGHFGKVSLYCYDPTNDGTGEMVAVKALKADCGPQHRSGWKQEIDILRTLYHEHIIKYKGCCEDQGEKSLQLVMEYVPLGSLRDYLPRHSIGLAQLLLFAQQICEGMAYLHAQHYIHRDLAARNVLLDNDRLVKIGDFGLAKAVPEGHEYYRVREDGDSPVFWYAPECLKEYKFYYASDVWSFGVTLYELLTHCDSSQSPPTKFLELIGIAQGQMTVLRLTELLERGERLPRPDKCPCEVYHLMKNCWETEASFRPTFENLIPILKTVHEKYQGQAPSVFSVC

| EC50 (wild-type LRRK2) [nM] | EC50 (LRRK2 (G2019S)) [nM] | inhibition at 0.01 µM (TYK2) [%] | inhibition at 0.01 µM (JAK2) [%] | inhibition at 0.01 µM (LRRK2) [%] | IC50 (LRRK2) [nM] | inhibition at 0.01 µM (JAK3 [1]) [%] | EC50 (JAK3 [2]) [nM] | Structure (SMILES) |
| --- | --- | --- | --- | --- | --- | --- | --- | --- |
| < 500 | < 500 | 40 to 79 | 40 to 79 | > 80 | < 50 | – | – | CC(C)S(=O)(=O)c1ccccc1Nc1nc(Nc2ccc3c(c2)OCCN(C)CCO3)ncc1C(F)(F)F [Example 82, N^4-(2-(isopropylsulfonyl)phenyl)-N^2-(4-methyl-3,4,5,6-tetrahydro-2H-benzo[b][1,4, 7]dioxazolin-9-yl)-5-(trifluoromethyl)pyrimidin-2,4-diamine] |
| – | – | – | 25 to 39 | – | – | > 80 | 50 to 500 | C=CC(=O)Nc1cccc(Nc2nc(Nc3ccc4c(c3)OCCN(C)CCO4)ncc2Cl)c1 [Example 55, N-(3-((5-chloro-2-((4-methyl-3,4,5,6-tetrahydro-2H-benzo[b][1,4,7]dioxazolin-9-yl)amino)pyrimidin-4-yl)amino)phenyl)acrylamide] |
| 1000 to 5000 | – | – | – | 40 to 79 | < 50 | – | – | CN1CCOc2ccc(Nc3nc(NCCS(C)(=O)=O)c4cc[nH]c4n3)cc2OCC1 [Example 84, N^2-(4-methyl-3,4,5,6-tetrahydro-2H-benzo[b][1,4,7]dioxazolin-9-yl)-N^4-(2-(methylsulfonyl)ethyl)-7H-pyrrolo[2,3-d]pyrimidin-2,4-diamine] |
